Measurements from PubChem BioAssay AID1963841 (Molecular Pharmacology Branch, DTP, NCI, 2024).

System: 439559-082-T-J2-PDC spheroid viability
Experiment: Anticancer human tumor 439559-082-T-J2-PDC patient-derived colon adenocarcinoma cell line growth inhibition [POLQ]
Settings: spheroids with HUVEC and MSC; for IC50: curve of first compound; for viability, T/C: stronger effect = lower value
Procedure, shortened: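 Complex spheroid viability model combining PDC tumour cells with endothelial (HUVEC) and MSC stromal cells. Novobiocin, ART-558 or RP6685 were tested singly and in combination with standard and investigational anticancer drugs. Each was titrated in half-log steps from near clinical Cmax, or from 10 microM where Cmax was unknown.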

[1] = second compound 0.0316 µM, first compound 0.0316 µM
[2] = second compound 0.0316 µM, first compound 0.1 µM
[3] = second compound 0.0316 µM, first compound 0.316 µM
[4] = second compound 0.0316 µM, first compound 1 µM
[5] = second compound 0.0316 µM, first compound 3.16 µM
[6] = second compound 0.0316 µM, first compound 10 µM
[7] = second compound 0.1 µM, first compound 0.0316 µM
[8] = second compound 0.1 µM, first compound 0.1 µM
[9] = second compound 0.1 µM, first compound 0.316 µM
[10] = second compound 0.1 µM, first compound 1 µM
[11] = second compound 0.1 µM, first compound 3.16 µM
[12] = second compound 0.1 µM, first compound 10 µM
[13] = second compound 0.316 µM, first compound 0.0316 µM
[14] = second compound 0.316 µM, first compound 0.1 µM
[15] = second compound 0.316 µM, first compound 0.316 µM
[16] = second compound 0.316 µM, first compound 1 µM
[17] = second compound 0.316 µM, first compound 3.16 µM
[18] = second compound 0.316 µM, first compound 10 µM
[19] = second compound 1 µM, first compound 0.0316 µM
[20] = second compound 1 µM, first compound 0.1 µM
[21] = second compound 1 µM, first compound 0.316 µM
[22] = second compound 1 µM, first compound 1 µM
[23] = second compound 1 µM, first compound 3.16 µM
[24] = second compound 1 µM, first compound 10 µM
[25] = second compound 3.16 µM, first compound 0.0316 µM
[26] = second compound 3.16 µM, first compound 0.1 µM
[27] = second compound 3.16 µM, first compound 0.316 µM
[28] = second compound 3.16 µM, first compound 1 µM
[29] = second compound 3.16 µM, first compound 3.16 µM
[30] = second compound 3.16 µM, first compound 10 µM
[31] = second compound 10 µM, first compound 0.0316 µM
[32] = second compound 10 µM, first compound 0.1 µM
[33] = second compound 10 µM, first compound 0.316 µM
[34] = second compound 10 µM, first compound 1 µM
[35] = second compound 10 µM, first compound 3.16 µM
[36] = second compound 10 µM, first compound 10 µM
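Further: spheroids exposed to compounds for seven days before readout.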
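Wherever viability, T/C is given: 100% = DMSO vehicle control viability.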

Q: Which IC50 (second compound 0.0316 µM) does the source give for `CC1COCCN1c1cc(C2(O)CC3CCC(C2)O3)c2cnn(-c3ccn[nH]3)c2n1` (centres undefined) + Cc1cccc(N(C)C(=O)C2C(O)CCN2c2nc(C)cc(C(F)(F)F)c2C#N)c1 here?
A: 3.84 µM

Q: And the IC50 (second compound 0.1 µM)?
A: 5.32 µM

Q: What about the IC50 (second compound 0.316 µM) of the same molecule?
A: 3.18 µM

Q: And the IC50 (second compound 1 µM)?
A: 4.98 µM

Q: What about the IC50 (second compound 3.16 µM) of the same molecule?
A: 2.87 µM

Q: What about the IC50 (second compound 10 µM) of the same molecule?
A: 2.93 µM

Q: What about the viability, T/C [1] of the same molecule?
A: 96.4%

Q: What about the viability, T/C [2] of the same molecule?
A: 79.1%

Q: What about the viability, T/C [3] of the same molecule?
A: 71.1%

Q: And the viability, T/C [4]?
A: 60.9%

Q: And the viability, T/C [5]?
A: 47.7%

Q: And the viability, T/C [6]?
A: 46.4%

Q: What about the viability, T/C [7] of the same molecule?
A: 95.6%

Q: And the viability, T/C [8]?
A: 86.1%

Q: And the viability, T/C [9]?
A: 66%

Q: What about the viability, T/C [10] of the same molecule?
A: 60.1%

Q: And the viability, T/C [11]?
A: 49.3%

Q: What about the viability, T/C [12] of the same molecule?
A: 49%

Q: What about the viability, T/C [13] of the same molecule?
A: 94.5%

Q: What about the viability, T/C [14] of the same molecule?
A: 79.4%

Q: What about the viability, T/C [15] of the same molecule?
A: 70.2%

Q: What about the viability, T/C [16] of the same molecule?
A: 57%

Q: What about the viability, T/C [17] of the same molecule?
A: 48.4%

Q: What about the viability, T/C [18] of the same molecule?
A: 46.6%

Q: What about the viability, T/C [19] of the same molecule?
A: 95.5%

Q: And the viability, T/C [20]?
A: 78.4%

Q: And the viability, T/C [21]?
A: 69.3%

Q: What about the viability, T/C [22] of the same molecule?
A: 61%

Q: What about the viability, T/C [23] of the same molecule?
A: 51.5%

Q: What about the viability, T/C [24] of the same molecule?
A: 46.8%

Q: What about the viability, T/C [25] of the same molecule?
A: 91.3%

Q: What about the viability, T/C [26] of the same molecule?
A: 80.8%

Q: And the viability, T/C [27]?
A: 66.7%

Q: And the viability, T/C [28]?
A: 57%

Q: And the viability, T/C [29]?
A: 48.9%

Q: And the viability, T/C [30]?
A: 46.1%

Q: What about the viability, T/C [31] of the same molecule?
A: 80.9%

Q: And the viability, T/C [32]?
A: 73.7%

Q: What about the viability, T/C [33] of the same molecule?
A: 65.5%

Q: And the viability, T/C [34]?
A: 55.6%

Q: What about the viability, T/C [35] of the same molecule?
A: 51.6%

Q: What about the viability, T/C [36] of the same molecule?
A: 41.1%

Q: How did the IC50 (second compound 0.0316 µM) turn out when `CCc1cc2c(N3CCc4c(cc(Cn5ccnc5)cc4-c4cn(C)nc4C(F)(F)F)C3=O)cc(C)nc2c(OC)n1` + Cc1cccc(N(C)C(=O)C2C(O)CCN2c2nc(C)cc(C(F)(F)F)c2C#N)c1 was run?
A: > 10 µM

Q: And the IC50 (second compound 0.1 µM)?
A: > 10 µM

Q: What about the IC50 (second compound 0.316 µM) of the same molecule?
A: > 10 µM

Q: And the IC50 (second compound 1 µM)?
A: > 10 µM

Q: What about the IC50 (second compound 3.16 µM) of the same molecule?
A: > 10 µM

Q: And the IC50 (second compound 10 µM)?
A: > 10 µM

Q: And the viability, T/C [1]?
A: 105%

Q: And the viability, T/C [2]?
A: 101%

Q: What about the viability, T/C [3] of the same molecule?
A: 101%

Q: What about the viability, T/C [4] of the same molecule?
A: 98.3%

Q: And the viability, T/C [5]?
A: 95.1%

Q: And the viability, T/C [6]?
A: 97.3%

Q: And the viability, T/C [7]?
A: 101%

Q: And the viability, T/C [8]?
A: 96.9%

Q: What about the viability, T/C [9] of the same molecule?
A: 90.2%

Q: And the viability, T/C [10]?
A: 77.2%

Q: And the viability, T/C [11]?
A: 111%

Q: What about the viability, T/C [12] of the same molecule?
A: 105%

Q: And the viability, T/C [13]?
A: 94.7%

Q: What about the viability, T/C [14] of the same molecule?
A: 95.3%

Q: What about the viability, T/C [15] of the same molecule?
A: 105%

Q: What about the viability, T/C [16] of the same molecule?
A: 81%

Q: And the viability, T/C [17]?
A: 90.6%

Q: What about the viability, T/C [18] of the same molecule?
A: 89.8%

Q: What about the viability, T/C [19] of the same molecule?
A: 96.6%

Q: What about the viability, T/C [20] of the same molecule?
A: 104%

Q: What about the viability, T/C [21] of the same molecule?
A: 95.8%

Q: And the viability, T/C [22]?
A: 95.7%

Q: And the viability, T/C [23]?
A: 99.6%

Q: What about the viability, T/C [24] of the same molecule?
A: 94.9%

Q: And the viability, T/C [25]?
A: 111%

Q: And the viability, T/C [26]?
A: 93.6%

Q: What about the viability, T/C [27] of the same molecule?
A: 87.6%

Q: What about the viability, T/C [28] of the same molecule?
A: 92.2%

Q: And the viability, T/C [29]?
A: 107%

Q: And the viability, T/C [30]?
A: 94%

Q: What about the viability, T/C [31] of the same molecule?
A: 94.8%

Q: What about the viability, T/C [32] of the same molecule?
A: 111%

Q: What about the viability, T/C [33] of the same molecule?
A: 80.7%

Q: And the viability, T/C [34]?
A: 91.5%

Q: What about the viability, T/C [35] of the same molecule?
A: 98.1%

Q: What about the viability, T/C [36] of the same molecule?
A: 86%
